Laboratory results as given in patent US12460262B2, “Methods of detecting, preventing, reversing, and treating neurological diseases” (Washington University, priority 2018, dated 2025).

How the values were obtained:
[1] = test system: cultured fibroblasts of MPS patients; settings: cited from earlier work
NAGLU-deficient mice = settings: cited from earlier work
ISF Aβ levels = test system: ISF Aβ levels; set-up: species or system mice; settings: mouse, in vivo
Method: To investigate the effect of NAGLU on Aβ generation and clearance, in vivo microdialysis is used to dynamically assess ISF Aβ metabolism in the hippocampus of 5XFAD/NAGLU (+14 5XFAD/NAGLU (−/−) mice and 5XFAD littermates injected with AVV2/9 or PBS at 3-4 months of age. To assess ISF Aβ levels over time in the hippocampus of awake, freely moving mice in vivo microdialysis is performed as previously described. Briefly, under isoflurane anesthesia, a guide cannula is stereotaxically implanted above the hippocampus (3.1 mm behind bregma, 2.5 mm lateral to midline, and 1.2 mm below dura at a 12° angle). A microdialysis probe is inserted through the guide cannula into the brain. Artificial CSF is used as microdialysis perfusion buffer. Microdialysis samples are collected every 60-90 min and are assessed for Aβ40 or Aβ42 by ELISAs. The mean concentration of Aβ over 6 hr is defined as basal concentration of ISF Aβ. For each animal, all Aβ concentrations are normalized to the basal Aβ concentration for that mouse. After basal concentration is determined mice are administered a blood-brain permeable γ-secretase inhibitor (LY411575, 3 mg/kg subcutaneously) to rapidly block the production of Aβ. […] The half-life of ISF Aβ is calculated on the basis of the slope of the semi-log plot of % change in Aβ versus time. […]

Aβ secretion = settings: in vitro exposure; cited from earlier work

Question: Which “synthesis of glycosaminoglycans (GAGs)” value [1] does the source give for `O=c1c(-c2ccc(O)cc2)coc2cc(O)cc(O)c12` [Genistein, 4′,5,7-trihydroxyisoflavone or 5,7-dihydroxy-3-(4-hydroxyphenyl)-4H-1-benzopyran-4-one] here?
Answer: Its value is “inhibits synthesis of glycosaminoglycans (GAGs)”.

Question: What about the lysosomal storage material (NAGLU-deficient mice) of the same compound?
Answer: Its lysosomal storage material is “reduces lysosomal storage material”.

Question: For `CCN(CC)CCCC(C)Nc1ccnc2cc(Cl)ccc12` (centres unmarked) [Chloroquine], which “change of ISF levels of Aβ” value (ISF Aβ levels) is on record?
Answer: Its value is “did not change”.

Question: Which Aβ secretion (Aβ secretion) does the source give for `CO/C1=C\C(C)=C\[C@@H](C)[C@@H](O)[C@@H](C)C/C(C)=C/C=C/[C@H](OC)[C@@H]([C@@H](C)[C@@H](O)[C@H](C)[C@@]2(O)C[C@@H](O)[C@H](C)[C@@H](C(C)C)O2)OC1=O` [bafilomycin A1] here?
Answer: Its Aβ secretion is “reduces Aβ secretion”.

Question: With `Cl.N` [ammonium chloride] as the compound, how does the Aβ secretion (Aβ secretion) read?
Answer: The Aβ secretion was “reduces Aβ secretion”.
